In publication PMC10179460, “Computational and Enzymatic Studies of Sartans in SARS-CoV-2 Spike RBD-ACE2 Binding: The Role of Tetrazole and Perspectives as Antihypertensive and COVID-19 Therapeutics” (International Journal of Molecular Sciences, 2023):

Target: T1, ACE2 (angiotensin-converting enzyme 2) (Homo sapiens, UniProt Q9BYF1)
T1 construct: recombinant human ACE2, His-tag and Strep-tag, from Sf9 insect cells
Experiment: SPR (Biacore T200, immobilized ACE2, […] kinetic model)
Type: binding

T1 sequence (Q9BYF1 18-805): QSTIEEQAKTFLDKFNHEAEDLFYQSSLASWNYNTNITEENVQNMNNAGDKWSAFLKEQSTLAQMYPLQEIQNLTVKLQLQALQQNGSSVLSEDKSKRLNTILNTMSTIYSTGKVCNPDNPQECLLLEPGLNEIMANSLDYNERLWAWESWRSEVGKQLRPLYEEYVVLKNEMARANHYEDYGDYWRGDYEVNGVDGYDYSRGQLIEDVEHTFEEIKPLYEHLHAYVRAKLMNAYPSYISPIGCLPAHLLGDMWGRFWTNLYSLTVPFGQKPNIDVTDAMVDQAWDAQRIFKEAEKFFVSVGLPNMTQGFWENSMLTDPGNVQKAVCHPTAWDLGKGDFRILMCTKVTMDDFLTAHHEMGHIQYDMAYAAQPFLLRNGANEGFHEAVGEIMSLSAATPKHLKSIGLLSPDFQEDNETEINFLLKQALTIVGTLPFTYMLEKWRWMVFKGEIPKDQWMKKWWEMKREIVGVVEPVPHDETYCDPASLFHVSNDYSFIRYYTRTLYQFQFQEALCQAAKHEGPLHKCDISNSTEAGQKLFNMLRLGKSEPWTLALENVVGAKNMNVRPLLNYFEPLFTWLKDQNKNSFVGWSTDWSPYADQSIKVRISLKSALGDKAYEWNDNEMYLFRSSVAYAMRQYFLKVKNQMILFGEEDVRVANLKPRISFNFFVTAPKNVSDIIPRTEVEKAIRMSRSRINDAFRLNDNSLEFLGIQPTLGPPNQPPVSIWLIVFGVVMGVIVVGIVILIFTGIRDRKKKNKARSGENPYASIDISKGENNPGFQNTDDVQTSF

Compound `CCCCc1nc(Cl)c(CO)n1Cc1ccc(-c2ccccc2-c2nn[nH]n2)cc1` [losartan] has a Kd of 13.7 nM.
